The source of these data is patent US20220194938A1, “NOVEL COMPOUNDS AND PHARMACEUTICAL COMPOSITIONS THEREOF FOR THE TREATMENT OF INFLAMMATORY DISORDERS” (GALAPAGOS NV, priority 2019, published 2022).

The experiment concerns CL097 triggered IFNα and TNFα release in human whole blood. In words: Ex vivo human IFNα and TNFα release inhibition (whole blood assay, CL097 triggered). To be noted: CL097 2 μg/mL, 3 h 30 min. The experiment is classed as cell-based. The text has this: 4.10.1. Ex Vivo Human IFNα and TNFα Release Inhibition (Whole Blood Assay)
The aim of the assay is to evaluate the activity of compounds of the invention on the activated TLR/IRAK-4 pathway in an ex vivo human whole blood setting. Toll-like receptors (TLRs) are pattern recognition receptors that recognize a wide variety of microbial molecules, called pathogen-associated molecular patterns (PAMPs). Human TLR7 and TLR8 recognize imidazoquinoline compounds (e.g., CL097—CAS n #1026249-18-2) and single stranded RNAs as their natural ligands. Activation of TLRs leads to the production of several cytokines (e.g., IFNα, TNFα, IL-8, IL-6) by the TLR agonist-treated cells, whereas IRAK4 leads to the production of IFNα. Cytokine release is used as readout in this assay and represents a measure for the level of inhibition of the TLR/IRAK-4 pathway by the tested compound. It should be noted that in the context of the complete organism, other sources for these cytokines exist that are not dependent on the TLR/IRAK-4 pathway, such as e.g., macrophages (upon activation of the Fcγ receptor (Yan et al. 2012)) or T cells (upon activation of the T cell receptor (Brehm, Daniels, and Welsh 2005)).
4.10.1.1. Experimental Design
Blood was collected from healthy volunteers into lithium heparin tubes by venipuncture, then gently inverted several times to prevent clotting and incubated for at least 15 min at 37° C. on a rocking mixer shaker. Then, 100 μL of blood was dispensed into polypropylene 96-well microplate and pre-incubated in duplicate with 0.3% DMSO or test compound at different concentrations (from 30 to 0.01 μM, 3-fold dilutions to get 0.3% DMSO at the final) for 15 min at 37° C. After this pre-incubation, blood was triggered with CL097 (2 μg/mL from 1 mg/mL solution in water; InvivoGen, tlr1-c97) for 3 h 30 min at 37° C. Microtubes were centrifuged at 5000×g for 10 min at 4° C. and approximately 40 μL of plasma were collected into a polystyrene 96-well plate. Plasma could be analyzed freshly, within 30 min after triggering, or frozen at −80° C. Finally, the quantification of TNFα and IFNα were performed in the plasma using AlphaLISA Kit for […] according to the manufacturer's instructions and read on the Ensight (PerkinElmer).
A standard curve was created by plotting on log-log the mean absorbance on the y-axis against the concentration on the x-axis and a 4 PL was made through the points. For each blood sample, the IFNα concentrations of the samples were determined from the fit.
Data were then expressed as a percentage of inhibition (PIN) for each replicate using the formula:
With mean IFNα with CL097=mean IFNα concentration of replicate samples triggered with CL097; IFNαsample1=IFNα concentration of sample 1; mean IFNα with vehicle=mean IFNα concentration of replicate samples treated with vehicle.
For each blood sample, the TNFα concentrations of the samples were determined from the fit. Data were then expressed as a percentage of inhibition (PIN) for each replicate using the formula:
With mean TNFα with CL097=mean TNFα concentration of replicate samples triggered with CL097; TNFαsample1=TNFα concentration of sample 1; mean TNFα with vehicle=mean TNFα concentration of replicate samples treated with vehicle.
Curve fitting for pIC50 determination were generated using mean PIN±sem. Graphs and pIC50 calculations were derived using Prism 5.03 software (GraphPad).

As a reminder, the IC50 is the point on the concentration scale where inhibition reaches its midpoint.

Like-named read-outs stand apart in the source and are kept apart here. A value given as a limit tells only on which side of the number the result lay.

`CNC(=O)c1cc2nc(CCC(C)(C)O)cn2cc1NC(=O)c1cccc(C(F)(F)F)n1` [Compound 2, 2-(3-hydroxy-3-methyl-butyl)-N-methyl-6-[[6-(trifluoromethyl)pyridine-2-carbonyl]amino]imidazo[1,2-a]pyridine-7-carboxamide]: the half-inhibitory concentration (IC50) (read-out: IFNα IC50) lay in the range of 500 to 1000 nM and the IC50 (read-out: TNFα IC50) was in the range of 0.1 to 500 nM.

Take `COc1cc2nc(CCC(C)(C)O)cn2cc1NC(=O)c1cccn(C2CC2)c1=O` [Compound 5, 1-cyclopropyl-N-[2-(3-hydroxy-3-methyl-butyl)-7-methoxy-imidazo[1,2-a]pyridin-6-yl]-2-oxo-pyridine-3-carboxamide]: the IC50 (read-out: IFNα IC50) was 0.1 to 500 nM.

Consider `COc1cc2nc(CCC(C)(C)O)cn2cc1NC(=O)c1cccn(C)c1=O` [Compound 4, N-[2-(3-hydroxy-3-methyl-butyl)-7-methoxy-imidazo[1,2-a]pyridin-6-yl]-1-methyl-2-oxo-pyridine-3-carboxamide], for which the half-inhibitory concentration (IC50) (read-out: IFNα IC50) lay in the range of 0.1 to 500 nM.

`COc1cc2nc(CCS(C)(=O)=O)cn2cc1NC(=O)c1cccc(C(F)(F)F)n1` [Compound 24, N-[7-methoxy-2-(2-methylsulfonylethyl)imidazo[1,2-a]pyridin-6-yl]-6-(trifluoromethyl)pyridine-2-carboxamide]: the half-maximal inhibitory concentration (IC50) (read-out: IFNα IC50) is 500 to 1000 nM.

As for `[2H]C([2H])([2H])NC(=O)c1cc2nc(CCC(C)(C)O)cn2cc1NC(=O)c1cccc(C(F)(F)F)n1` [Compound 1, 2-(3-hydroxy-3-methyl-butyl)-N-(trideuteriomethyl)-6-[[6-(trifluoromethyl)pyridine-2-carbonyl]amino]imidazo[1,2-a]pyridine-7-carboxamide], the IC50 runs as follows: (read-out: IFNα IC50) 1000 to 5000 nM; (read-out: TNFα IC50) 0.1 to 500 nM.

For `CCOc1c(NC(=O)c2cccn(C3CC3)c2=O)cn2cc(CCC(C)(C)O)nc2c1F` [Compound 37, 1-cyclopropyl-N-[7-ethoxy-8-fluoro-2-(3-hydroxy-3-methyl-butyl)imidazo[1,2-a]pyridin-6-yl]-2-oxo-pyridine-3-carboxamide], for the setting “read-out: TNFα IC50”, the IC50 fell in the range of 1000 to 5000 nM.

For the molecule `COc1c(NC(=O)c2cccn(C3CC3)c2=O)cn2cc(CCC(C)(C)O)nc2c1F` [Compound 42, 1-cyclopropyl-N-[8-fluoro-2-(3-hydroxy-3-methyl-butyl)-7-methoxy-imidazo[1,2-a]pyridin-6-yl]-2-oxo-pyridine-3-carboxamide], the IC50 lay within 500 to 1000 nM (read-out: IFNα IC50) and 0.1 to 500 nM (read-out: TNFα IC50).

With `CC(C)(O)CCc1cn2cc(NC(=O)c3cccc(C(F)(F)F)n3)c(C(N)=O)cc2n1` [Compound 31, 2-(3-hydroxy-3-methyl-butyl)-6-[[6-(trifluoromethyl)pyridine-2-carbonyl]amino]imidazo[1,2-a]pyridine-7-carboxamide], the IC50 by setting is: (read-out: IFNα IC50) 0.1 to 500 nM; (read-out: TNFα IC50) 0.1 to 500 nM.

Regarding `COc1cc2nc(CCC(C)(C)O)cn2cc1NC(=O)c1cccn(C(F)F)c1=O` [Compound 12, 1-(difluoromethyl)-N-[2-(3-hydroxy-3-methyl-butyl)-7-methoxy-imidazo[1,2-a]pyridin-6-yl]-2-oxo-pyridine-3-carboxamide], the concentration for half-maximal inhibition (IC50) (read-out: IFNα IC50) fell in the range of 500 to 1000 nM.

`CC(C)(O)CCc1cn2cc(NC(=O)c3cccc(C(F)(F)F)n3)c(C(=O)NCC(F)F)cc2n1` [Compound 48, N-(2,2-difluoroethyl)-2-(3-hydroxy-3-methylbutyl)-6-(6-(trifluoromethyl)picolinamido)imidazo[1,2-a]pyridine-7-carboxamide]: the half-maximal inhibitory concentration (IC50) by setting is: (read-out: IFNα IC50) 1000 to 5000 nM; (read-out: TNFα IC50) 1000 to 5000 nM.

As for `CCOc1c(NC(=O)c2cccn(C3CC3)c2=O)cn2cc(CCS(C)(=O)=O)nc2c1F` [Compound 39, 1-cyclopropyl-N-[7-ethoxy-8-fluoro-2-(2-methylsulfonylethyl)imidazo[1,2-a]pyridin-6-yl]-2-oxo-pyridine-3-carboxamide], the IC50 by setting is: (read-out: IFNα IC50) 500 to 1000 nM; (read-out: TNFα IC50) 500 to 1000 nM.

In the case of `COc1cc2nc(CCC(C)(C)O)cn2cc1NC(=O)c1cccc(C)n1` [Compound 6, N-[2-(3-hydroxy-3-methyl-butyl)-7-methoxy-imidazo[1,2-a]pyridin-6-yl]-6-methyl-pyridine-2-carboxamide], the concentration for half-maximal inhibition (IC50) (read-out: IFNα IC50) fell in the range of 0.1 to 500 nM.

Regarding `COCCc1cn2cc(NC(=O)c3cccc(C(F)(F)F)n3)c(OC)cc2n1` [Compound 35, N-[7-methoxy-2-(2-methoxyethyl)imidazo[1,2-a]pyridin-6-yl]-6-(trifluoromethyl)pyridine-2-carboxamide], the IC50 reads like this: (read-out: IFNα IC50) > 5000 nM; (read-out: TNFα IC50) > 5000 nM.

Take `COc1cc2nc(CCS(C)(=O)=O)cn2cc1NC(=O)c1cccn(C2CC2)c1=O` [Compound 25, 1-cyclopropyl-N-[7-methoxy-2-(2-methylsulfonylethyl)imidazo[1,2-a]pyridin-6-yl]-2-oxo-pyridine-3-carboxamide]: under “read-out: IFNα IC50”, the IC50 lay in the range of 0.1 to 500 nM.

Take `COc1cc2nc(CCC(C)(C)O)cn2cc1NC(=O)c1cccc(C(F)F)n1` [Compound 7, 6-(difluoromethyl)-N-[2-(3-hydroxy-3-methyl-butyl)-7-methoxy-imidazo[1,2-a]pyridin-6-yl]pyridine-2-carboxamide]: the IC50 (read-out: IFNα IC50) fell in the range of 0.1 to 500 nM.

On to `COc1cc2nc(CCC(C)(C)O)cn2cc1NC(=O)c1cccc(C(F)(F)F)n1` [Compound 3, N-[2-(3-hydroxy-3-methyl-butyl)-7-methoxy-imidazo[1,2-a]pyridin-6-yl]-6-(trifluoromethyl)pyridine-2-carboxamide], for which the 50% inhibitory concentration (IC50) (read-out: IFNα IC50) lay in the range of 1000 to 5000 nM.
